Measured values: US20050176804A1, “Method and material for free radical scavenging in human tissue” (priority 2003, published 2005)

Assays:
[1] = tested on: human skin fibroblast cultures; assay: Total ROS generation in skin fibroblasts, DCFDA fluorescent probe; type: cell-based
Procedure: (§1) The anti-oxidative action of indoleacetyl phenylalanine was tested against reactive oxygen species (ROS) using human skin fibroblast cultures. Total ROS generation in skin fibroblasts was measured using the fluorescent dye dichlorofluorescin diacetate (DCFDA) as a probe. DCFDA readily diffuses through cell membranes and is enzymatically hydrolyzed by intracellular esterase to become non-fluorescent dichlorofluorescin (DCFH), which is then oxidized by reactive species (oxidants) to highly fluorescent […] (DCF). Increased antioxidant activity within a cell is marked by a reduction in the fluorescent DCF.
(§2) Positive results were obtained with fibroblasts incubated in both serum-containing and serum-free media (serum proteins, e.g., albumin, can act as antioxidants and skew test results).

skin fibroblasts [2] = assay: t-butyl hydroperoxide (t-BHP) induced ROS activity; type: cell-based, human; settings: serum-free media
Procedure: as §1

[3] = tested on: cultured human skin fibroblasts; assay: RNS suppression, total nitrate plus nitrite (Nox) generation, Greiss assay; type: cell-based; settings: 60 μg/ml
Procedure: In addition to ROS activity, indoleacetyl phenylalanine was also tested against radical nitrogen species (RNS) in cultured human skin fibroblasts. To estimate suppression of RNS, total nitrate plus nitrite (Nox) generation was measured using the Greiss assay method. At a concentration of 60 μg/ml, indoleacetyl phenylalanine decreased RNS generation by 33% as compared to an untreated control.

Cu/ZnSOD = Cu/ZnSOD gene expression by Western blotting; type: cell-based; settings: 15 and 30 μM; human skin fibroblasts
Procedure: (§3) The antioxidant effects of indoleacetyl phenylalanine was also tested with respect to the production of antioxidant enzymes by means of differential gene expression in human skin fibroblasts. The experiment was conducted with respect to gene expression related to two major defense enzymes, Superoxide Dismutase (SOD) and catalase. […] Gene expression for both enzymes was stimulated at indoleacetyl phenylalanine concentrations of 15 and 30 μM.

catalase = assay: Catalase gene expression by Western blotting; type: cell-based; settings: 15 and 30 μM, particularly increased at 30 μM; human skin fibroblasts
Procedure: as §3

[4] = tested on: nitric oxide synthase (iNOS); assay: iNOS suppression, native and activated states; type: cell-based; settings: 3-12 μM
Excerpt: Following previous leads on indoleacetyl phenylalanine's finding as a potent anti-free radical substance, additional experimental evidence was sought to strengthen the earlier findings. Focus at this time was placed on nitric oxide synthase (iNOS), which is the key enzyme for generating a destructive oxidant, nitric oxide. Since this enzyme existed in native and activated states, it was pertinent to check both the enzyme activities to ascertain the inhibitory action of indoleacetyl phenylalanine.

fibroblast COX-2 enzymes = target: T1, fibroblast COX-2 enzymes (Homo sapiens, UniProt P35354); assay: Inhibition of fibroblast COX-2 enzymes; type: cell-based
T1 construct: endogenous in cells
T1 sequence (P35354 18-604): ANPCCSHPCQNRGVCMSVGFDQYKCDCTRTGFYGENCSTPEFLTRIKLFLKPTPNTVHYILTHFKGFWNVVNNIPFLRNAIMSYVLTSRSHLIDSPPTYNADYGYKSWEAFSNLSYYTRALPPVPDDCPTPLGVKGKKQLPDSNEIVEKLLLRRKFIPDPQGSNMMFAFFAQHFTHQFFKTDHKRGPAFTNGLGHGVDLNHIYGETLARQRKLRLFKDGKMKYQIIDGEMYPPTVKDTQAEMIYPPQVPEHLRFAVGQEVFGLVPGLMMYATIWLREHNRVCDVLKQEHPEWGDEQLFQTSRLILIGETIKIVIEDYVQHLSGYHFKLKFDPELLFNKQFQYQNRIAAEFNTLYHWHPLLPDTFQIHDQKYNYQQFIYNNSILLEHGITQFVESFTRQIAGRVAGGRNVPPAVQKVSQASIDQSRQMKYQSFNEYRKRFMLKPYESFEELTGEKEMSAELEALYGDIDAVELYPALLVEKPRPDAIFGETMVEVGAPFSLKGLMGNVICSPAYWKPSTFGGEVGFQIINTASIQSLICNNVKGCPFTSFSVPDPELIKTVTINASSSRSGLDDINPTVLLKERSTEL

fibroblasts = assay: Cell proliferation / cell viability, MTT method; type: cell-based
Procedure: Furthermore, to investigate the effects of indole derivatives on cell proliferation as a biological marker, cell viability was assayed using the MTT method.

skin fibroblasts [5] = assay: Cell viability of skin fibroblasts during ROS test; type: cell-based, human
Procedure: as §2

In the case of `O=C(Cc1c[nH]c2ccccc12)N[C@@H](Cc1ccccc1)C(=O)O` [indoleacetyl phenylalanine], the “antioxidant activity toward ROS generation” value ([1]; 10% serum media, 15, 30, and 60 μM) is reported as “significant antioxidant activity”, the “antioxidant activity toward ROS generation” value ([1]; serum-free media, 7.5, 15, and 30 μM) is reported as “exhibited antioxidant activity” and the “antioxidant activity against t-BHP induced ROS activity” value (skin fibroblasts [2]) is reported as “showed antioxidant activity”. The “decrease of RNS generation compared to untreated control” value [3] was 33%, the “gene expression for production of Cu/ZnSOD (protein amount)” value (Cu/ZnSOD) was “increased gene expression” and the “gene expression for production of catalase (protein amount)” value (catalase) was “increased gene expression”. The “suppression of iNOS, native state” value [4] was “suppressed iNOS”, the “suppression of iNOS gene expression activity, activated state” value ([4]; activated by 5 μM t-BHP) was “able to suppress iNOS gene expression activity” and the “anti-inflammatory effect, COX-2 inhibition” value (fibroblast COX-2 enzymes) was “inhibition of fibroblast COX-2 enzymes”. The “stimulation of cell proliferation compared to untreated controls” value (fibroblasts; MTT method) was 30%, the “lowest concentration giving dose-dependent fibroblast proliferation” value (fibroblasts; four-day incubation period) was 2 µM and the “effect on cell viability” value (skin fibroblasts [5]) was “without affecting cell viability”.
